Results as given in patent publication US9242970B2 (ACTELION PHARMACEUTICALS LTD., priority 2010, dated 2016).

Assays:
human orexin-2 receptor = human orexin-2 receptor (Homo sapiens (Human), UniProt O43614); assay: In vitro assay: intracellular calcium measurements (FLIPR), antagonistic activity; format: cell-based; conditions: CHO cells, 3 nM orexin-A, compound incubation 120 min; marked values are geometric means of n = 2-6; read-out: IC50 OX2
human orexin-1 receptor = human orexin-1 receptor (Homo sapiens (Human), UniProt O43613); assay: as above; format: cell-based; conditions: CHO cells, 3 nM orexin-A, compound incubation 120 min; marked values are geometric means of n = 2-6; read-out: IC50 OX1
Sequence of human orexin-1 receptor (O43613 whole entry): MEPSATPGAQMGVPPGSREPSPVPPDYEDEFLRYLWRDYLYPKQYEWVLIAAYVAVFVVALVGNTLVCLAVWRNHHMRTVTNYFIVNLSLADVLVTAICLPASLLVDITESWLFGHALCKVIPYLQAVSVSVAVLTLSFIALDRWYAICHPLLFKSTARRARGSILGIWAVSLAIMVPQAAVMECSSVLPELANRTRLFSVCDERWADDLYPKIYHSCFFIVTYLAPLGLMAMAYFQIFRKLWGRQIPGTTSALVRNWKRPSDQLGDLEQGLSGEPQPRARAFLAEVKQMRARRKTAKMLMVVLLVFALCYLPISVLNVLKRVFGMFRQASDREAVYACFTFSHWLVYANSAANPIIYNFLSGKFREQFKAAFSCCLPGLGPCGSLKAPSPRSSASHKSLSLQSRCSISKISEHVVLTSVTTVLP

Sequence of human orexin-2 receptor (O43614 whole entry): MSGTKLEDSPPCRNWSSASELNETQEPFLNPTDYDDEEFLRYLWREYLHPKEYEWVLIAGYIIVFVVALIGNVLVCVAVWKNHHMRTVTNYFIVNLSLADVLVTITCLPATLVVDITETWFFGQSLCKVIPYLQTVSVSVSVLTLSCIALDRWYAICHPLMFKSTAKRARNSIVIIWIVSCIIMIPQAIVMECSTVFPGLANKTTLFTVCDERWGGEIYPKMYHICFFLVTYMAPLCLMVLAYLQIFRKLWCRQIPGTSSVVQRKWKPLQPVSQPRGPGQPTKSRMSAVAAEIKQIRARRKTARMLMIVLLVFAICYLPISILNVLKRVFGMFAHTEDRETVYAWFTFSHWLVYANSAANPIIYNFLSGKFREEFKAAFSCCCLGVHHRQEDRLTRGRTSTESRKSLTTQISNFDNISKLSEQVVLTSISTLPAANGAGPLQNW

SMILES	IC50 (human orexin-2 receptor) [nM]	IC50 (human orexin-1 receptor) [nM]
CCOc1cccc(F)c1C1CC(C)C(=O)N1Cc1ccnc(-c2ncc(C)s2)c1 (stereo not drawn) [Example 380, 5-(2-ethoxy-6-fluorophenyl)-3-methyl-1-((2-(5-methylthiazol-2-yl)pyridin-4-yl)methyl)pyrrolidin-2-one]	2	131
CCOc1cccc(F)c1C1CC(C)C(=O)N1Cc1ccnc(-n2cccn2)c1 (stereo not drawn) [Example 381, 1-((2-(1H-pyrazol-1-yl)pyridin-4-yl)methyl)-5-(2-ethoxy-6-fluorophenyl)-3-methylpyrrolidin-2-one]	9	418
CCOc1cccc(F)c1C1CC(C)C(=O)N1Cc1ccc2oc3ccccc3c2c1 (stereo not drawn) [Example 382, 1-(dibenzo[b,d]furan-2-ylmethyl)-5-(2-ethoxy-6-fluorophenyl)-3-methylpyrrolidin-2-one]	2	88
CCOc1cccc(F)c1C1CC(C)C(=O)N1Cc1csc(-c2ccc(C)cc2)n1 (stereo not drawn) [Example 383, 5-(2-ethoxy-6-fluorophenyl)-3-methyl-1-((2-(p-tolyl)thiazol-4-yl)methyl)pyrrolidin-2-one]	9	234
CCOc1cccc(F)c1C1CC(C)C(=O)N1Cc1cccc(-c2ncc(C)s2)c1 (stereo not drawn) [Example 384, 5-(2-ethoxy-6-fluorophenyl)-3-methyl-1-(3-(5-methylthiazol-2-yl)benzyl)pyrrolidin-2-one]	2	111
CCOc1cccc(F)c1C1CC(C)C(=O)N1Cc1cccc(-c2nc(Cl)cs2)c1 (stereo not drawn) [Example 385, 1-(3-(4-chlorothiazol-2-yl)benzyl)-5-(2-ethoxy-6-fluorophenyl)-3-methylpyrrolidin-2-one]	2	64
CCOc1cccc(F)c1C1CC(C)C(=O)N1Cc1ccnc(-c2nc(C)cs2)c1 (stereo not drawn) [Example 386, 5-(2-ethoxy-6-fluorophenyl)-3-methyl-1-((2-(4-methylthiazol-2-yl)pyridin-4-yl)methyl)pyrrolidin-2-one]	2	39
COc1cccc(OC)c1C1CC(C)C(=O)N1Cc1ccc2c(c1)c1ccccc1n2C (stereo not drawn) [Example 387, 5-(2,6-dimethoxyphenyl)-3-methyl-1-((9-methyl-9H-carbazol-3-yl)methyl)pyrrolidin-2-one]	111	100
COc1cccc(OC)c1C1CC(C)C(=O)N1Cc1cc2ccccc2n1C (stereo not drawn) [Example 388, 5-(2,6-dimethoxyphenyl)-3-methyl-1-((1-methyl-1H-indol-2-yl)methyl)pyrrolidin-2-one]	132	83
COc1cccc(OC)c1C1CC(C)C(=O)N1Cc1cc2cc(F)ccc2n1C (stereo not drawn) [Example 390, 5-(2,6-dimethoxyphenyl)-1-((5-fluoro-1-methyl-1H-indol-2-yl)methyl)-3-methylpyrrolidin-2-one]	142	80
COc1cccc(OC)c1C1CC(C)C(=O)N1Cc1ccc2c(ccn2C)c1 (stereo not drawn) [Example 391, 5-(2,6-dimethoxyphenyl)-3-methyl-1-((1-methyl-1H-indol-5-yl)methyl)pyrrolidin-2-one]	529	175
COc1cccc(OC)c1C1CC(C)C(=O)N1Cc1ccc2[nH]ccc2c1 (stereo not drawn) [Example 392, 1-((1H-indol-5-yl)methyl)-5-(2,6-dimethoxyphenyl)-3-methylpyrrolidin-2-one]	1780	810
COc1cccc(OC)c1C1CC(C)C(=O)N1Cc1ccc2sc(C)nc2c1 (stereo not drawn) [Example 393, 5-(2,6-dimethoxyphenyl)-3-methyl-1-((2-methylbenzo[d]thiazol-5-yl)methyl)pyrrolidin-2-one]	121	32
COc1cccc(OC)c1C1CC(C)C(=O)N1Cc1ccc(OC(C)C)cc1 (stereo not drawn) [Example 397, 5-(2,6-dimethoxyphenyl)-1-(4-isopropoxybenzyl)-3-methylpyrrolidin-2-one]	370	265
COc1cccc(OC)c1C1CC(C)C(=O)N1Cc1ccc(SC(F)(F)F)cc1 (stereo not drawn) [Example 398, 5-(2,6-dimethoxyphenyl)-3-methyl-1-(4-((trifluoromethyl)thio)benzyl)pyrrolidin-2-one]	428	277
COc1cccc(OC)c1C1CC(C)C(=O)N1Cc1ccc(OC(F)(F)C(F)F)cc1 (stereo not drawn) [Example 399, 5-(2,6-dimethoxyphenyl)-3-methyl-1-(4-(1,1,2,2-tetrafluoroethoxy)benzyl)pyrrolidin-2-one]	124	172
COc1cccc(OC)c1C1CC(C)C(=O)N1Cc1ccc(OC(F)(F)F)c(F)c1 (stereo not drawn) [Example 400, 5-(2,6-dimethoxyphenyl)-1-(3-fluoro-4-(trifluoromethoxy)benzyl)-3-methylpyrrolidin-2-one]	183	151
COc1cccc(OC)c1C1CC(C)C(=O)N1Cc1ccc(OC(F)F)c(Cl)c1 (stereo not drawn) [Example 401, 1-(3-chloro-4-(difluoromethoxy)benzyl)-5-(2,6-dimethoxyphenyl)-3-methylpyrrolidin-2-one]	155	164

SMILES	IC50 (human orexin-2 receptor) [nM]	IC50 (human orexin-1 receptor) [nM]
COc1cccc(OC)c1C1CC(C)C(=O)N1Cc1ccc(OC(F)F)cc1 (stereo not drawn) [Example 402, 1-(4-(difluoromethoxy)benzyl)-5-(2,6-dimethoxyphenyl)-3-methylpyrrolidin-2-one]	621	271
COc1ccc(OC(F)(F)F)cc1CN1C(=O)C(C)CC1c1c(OC)cccc1OC (stereo not drawn) [Example 403, 5-(2,6-dimethoxyphenyl)-1-(2-methoxy-5-(trifluoromethoxy)benzyl)-3-methylpyrrolidin-2-one]	449	532
COc1ccc(CN2C(=O)C(C)CC2c2c(OC)cccc2OC)cc1OC(F)(F)F (stereo not drawn) [Example 404, 5-(2,6-dimethoxyphenyl)-1-(4-methoxy-3-(trifluoromethoxy)benzyl)-3-methylpyrrolidin-2-one]	513	965
COc1cccc(OC)c1C1CC(C)C(=O)N1Cc1ccccc1OC(F)(F)F (stereo not drawn) [Example 405, 5-(2,6-dimethoxyphenyl)-3-methyl-1-(2-(trifluoromethoxy)benzyl)pyrrolidin-2-one]	87	555
COc1cccc(F)c1C1CC(F)(F)C(=O)N1Cc1ccc2oc3ccccc3c2c1 (stereo not drawn) [Example 410, 1-(dibenzo[b,d]furan-2-ylmethyl)-3,3-difluoro-5-(2-fluoro-6-methoxyphenyl)pyrrolidin-2-one]	12	143
CC(C)Oc1cccc(F)c1C1CC(F)(F)C(=O)N1Cc1ccc(OC(F)(F)F)cc1 (stereo not drawn) [Example 411, 3,3-difluoro-5-(2-fluoro-6-isopropoxyphenyl)-1-(4-(trifluoromethoxy)benzyl)pyrrolidin-2-one]	98	1490
CC(C)Oc1cccc(F)c1C1CC(C)C(=O)N1Cc1ccc(OC(F)(F)F)cc1 (stereo not drawn) [Example 413, 5-(2-fluoro-6-isopropoxyphenyl)-3-methyl-1-(4-(trifluoromethoxy)benzyl)pyrrolidin-2-one]	68	1500
CC1CC(c2c(F)cccc2OCCF)N(Cc2ccc(OC(F)(F)F)cc2)C1=O (stereo not drawn) [Example 414, 5-(2-fluoro-6-(2-fluoroethoxy)phenyl)-3-methyl-1-(4-(trifluoromethoxy)benzyl)pyrrolidin-2-one]	44	1500
CC1CC(c2c(F)cccc2OCCO)N(Cc2ccc(OC(F)(F)F)cc2)C1=O (stereo not drawn) [Example 416, 5-(2-fluoro-6-(2-hydroxyethoxy)phenyl)-3-meetthyl-1-(4-(trifluoromethoxy)benzyl)pyrrolidin-2-one]	59	2940
COc1cccc(OC)c1C1CC(C)C(=O)N1Cc1cccc(OCC(F)(F)F)c1 (stereo not drawn) [Example 417, 5-(2,6-dimethoxyphenyl)-3-methyl-1-(3-(2,2,2-trifluoroethoxy)benzyl)pyrrolidin-2-one]	110	123
COc1cccc(OC)c1C1CC(C)C(=O)N1Cc1ccc(OCC(F)(F)F)cc1 (stereo not drawn) [Example 418, 5-(2,6-dimethoxyphenyl)-3-methyl-1-(4-(2,2,2-trifluoroethoxy)benzyl)pyrrolidin-2-one]	323	430
COc1cccc(OC)c1C1CC(C)C(=O)N1Cc1cccc(OCC(F)F)c1 (stereo not drawn) [Example 419, 1-(3-(2,2-difluoroethoxy)benzyl)-5-(2,6-dimethoxyphenyl)-3-methylpyrrolidin-2-one]	173	143
COc1cccc(OC)c1C1CC(C)C(=O)N1Cc1ccc(OCC(F)F)cc1 (stereo not drawn) [Example 420, 1-(4-(2,2-difluoroethoxy)benzyl)-5-(2,6-dimethoxyphenyl)-3-methylpyrrolidin-2-one]	549	586
COc1cccc(OC)c1C1CC(C)C(=O)N1Cc1cccc(OCCF)c1 (stereo not drawn) [Example 421, 5-(2,6-dimethoxyphenyl)-1-(3-(2-fluoroethoxy)benzyl)-3-methylpyrrolidin-2-one]	237	498
COc1cccc(OC)c1C1CC(C)C(=O)N1Cc1ccc(OCCF)cc1 (stereo not drawn) [Example 422, 5-(2,6-dimethoxyphenyl)-1-(4-(2-fluoroethoxy)benzyl)-3-methylpyrrolidin-2-one]	1040	863
COc1cccc(OC)c1C1CC(C)C(=O)N1Cc1cccc(OC(C)C)c1 (stereo not drawn) [Example 423, 5-(2,6-dimethoxyphenyl)-1-(3-isopropoxybenzyl)-3-methylpyrrolidin-2-one]	93	101
COc1cccc(OC)c1C1CC(C)C(=O)N1Cc1cccc(OC(F)(F)C(F)F)c1 (stereo not drawn) [Example 424, 5-(2,6-dimethoxyphenyl)-3-methyl-1-(3-(1,1,2,2-tetrafluoroethoxy)benzyl)pyrrolidin-2-one]	13	27
COc1cc(CN2C(=O)C(C)CC2c2c(OC)cccc2OC)ccc1OC(F)F (stereo not drawn) [Example 425, 1-(4-(difluoromethoxy)-3-methoxybenzyl)-5-(2,6-dimethoxyphenyl)-3-methylpyrrolidin-2-one]	235	311
